Paper PMC11876601 (Molecular Systems Biology, 2025)

Test system: 13 PDAC cell lines
Assay: Phenotypic drug combination viability screen (ATPlite, 72 h), cell line panel
Type: cell-based, human
Settings: of 13 cell lines; Bliss model

| Compound | number of cell lines with synergy with GEM [cell lines] |
| --- | --- |
| COc1cc(N2CCC(N3CCN(C)CC3)CC2)ccc1Nc1ncc(Cl)c(Nc2ccccc2P(C)(C)=O)n1 [Brigatinib] | 5 |
| C[C@]12O[C@H](C[C@]1(O)CO)n1c3ccccc3c3c4c(c5c6ccccc6n2c5c31)CNC4=O [Lestaurtinib] | 5 |
